Experiments:
Format in all cases: functional
[1] = tested on: Mus musculus; experiment: Psychotropic Effect evaluated by Mouse Ring Test at a dose of 0.1 mg/kg
[2] = tested on: Mus musculus; experiment: Psychotropic Effect evaluated by Mouse Ring Test at a dose of 10 mg/kg
[3] = tested on: Mus musculus; experiment: Psychotropic Effect evaluated by Mouse Ring Test at a dose of 1 mg/kg
[4] = tested on: Mus musculus; experiment: Psychotropic Effect evaluated by Mouse Ring Test at a dose of 20 mg/kg
[5] = tested on: Columba livia; experiment: Effective Dose when administered at a dose of 0.78 mg/kg in pigeons; details: in Columbidae
[6] = tested on: Columba livia; experiment: Effective Dose when administered at a dose of 0.99 mg/kg in pigeons; details: in Columbidae
[7] = tested on: Rattus norvegicus; experiment: Effective Dose when administered at a dose of 0.98 mg/kg in rats
[8] = tested on: Columba livia; experiment: Effective Dose when administered in pigeons; details: in Columbidae
[9] = tested on: Rattus norvegicus; experiment: Effective Dose when administered at a dose of 0.94 mg/kg in rats

C=C1[C@H]2Oc3cc(C(C)(C)CCCCCC)cc(O)c3[C@H]2[C@H]2C[C@@H]1C2(C)C
Psychotropic Effect [1]: 10
Psychotropic Effect [2]: 28.1
Psychotropic Effect [3]: 20
Psychotropic Effect [4]: 43.2
ED50 [5]: 3.57 mg/kg

C=C1[C@H]2Oc3cc(C(C)(C)CCCCCC)cc(O)c3[C@H]2[C@@H]2C[C@H]1C2(C)C
Psychotropic Effect [1]: 13.2
Psychotropic Effect [2]: 66.1
Psychotropic Effect [3]: 42
Psychotropic Effect [4]: 89.2
ED50 [6]: 0.17 mg/kg
ED50 [7]: 0.72 mg/kg

CCCCCc1cc(O)c2c(c1)OC(C)(C)[C@@H]1CCC(C)=C[C@@H]21 [DRONABINOL]
ED50 [8]: 0.18 mg/kg
ED50 [9]: 0.66 mg/kg

CCCCCc1cc(O)c2c(c1)OC(C)(C)[C@@H]1CC=C(C)C[C@@H]21 [DELTA-8-TETRAHYDROCANNABINOL]
Psychotropic Effect [1]: 13.2
Psychotropic Effect [2]: 41.3
Psychotropic Effect [3]: 20.9
